Data reported in US8936793B2, “Synthetic archaeal glycolipid adjuvants” (National Research Council of Canada, priority 2006, dated 2015).
Each block holds one molecule with its values, some of them ahead of it.

Legend:
[1] = incorporation of 36 mol % into archaeosomes; Sprott et al (23); cited from earlier work
anti-OVA antibody = experiment: Anti-OVA IgG/IgM antibody titration in blood of immunized mice by ELISA; assay type: in vivo, C57BL/6 mice; conditions: for antigen-specific antibody response, FIG. 10B: gentiotriose archaeol/anionic lipid/cholesterol (35/35/30, mol %), 9 weeks
Experimental: (§1) To determine adjuvant activity, various synthetic archaeosomes with OVA entrapped (OVA-archaeosomes) were used to immunize female C57BL/6 mice on days 0 and 21 (6-8 weeks old on first injection). Injections were subcutaneous at the tail base with 0.1 ml PBS containing 15 μg OVA entrapped in 0.2-0.63 mg lipids. Blood samples were collected from the tail vein for anti-OVA IgG/IgM antibody titration done by ELISA (13). In some cases faecal extracts were assayed for IgA (and IgG) to assess mucosal responses following systemic immunizations. Fresh faeces (about 30 mg dry weight) were collected from 4 mice/group, and extracted by adding 0.5 ml of phosphate buffered saline (pH 7.0) containing 10% fetal calf serum and 0.1% sodium azide. Homogenized samples were centrifuged and Elisa measured anti OVA antibody in supernatants. Spleens were collected to determine CTL activity using the Cr^51-assay with specific and non-specific targets EG.7 and EL-4, respectively (14). In Elispot assays antigen-specific CD8^+ T cell activity was measured in splenic cells from immunized mice by determining the number of SIINFEKL stimulated IFN-γ-secreting cells per 5×10^5 splenic cells (15).

[2] = tested on: SIINFEKL stimulated IFN-γ-secreting cells; experiment: Elispot assay of antigen-specific CD8+ T cell activity in splenic cells of immunized mice; assay type: in vivo, C57BL/6 mice; conditions: for antigen-specific CD8+ T cell response, Elispot, FIG. 10A: gentiotriose archaeol/anionic lipid/cholesterol (35/35/30, mol %), weeks 6 and 8; for CD8+ T cell adjuvant activity, Elispot, FIG. 7C: glyco-archaeol/DPPG/cholesterol (25/55/20, mol %)
Experimental: as §1, with “SIINFEKL” left out

[3] = Archaeosome formation upon hydration and stability on storage (microscopic examination, size); assay type: physicochemical; conditions: lipid hydrated alone
From the text: Presence of a relationship was explored between adjuvant activity and the mol % of the active ingredient, β-D-Glc-(1,6)-β-D-Glc-archaeol, mixed with DPPG/cholesterol. Cholesterol was maintained constant at 20 mol % with DPPG added as required to balance increasing amounts of β-D-Glc-(1,6)-β-D-Glc-archaeol. […] Hydration became more difficult at 60 mol % D-Glc-(1,6)-β-D-Glc-archaeol, and archaeosomes with 60 mol % of the synthetic glyco-archaeol increased in size during the removal of unentrapped antigen indicating instability (Table 11). […] Immunized mice developed CD8^+ T cell immune responses that were best at 15-45 mol % Glc2-archaeol content (FIG. 5).
The need for cholesterol, and the optimal mol % cholesterol needed to achieve stability of archaeosomes containing 35 mol % D-Glc-(1,6)-β-D-Glc-archaeol was explored. Cholesterol was varied in each preparation from 0, 10, 20, 30 and 45 mol %. DPPG made up the balance of each preparation. Lipids were mixed in solvent and archaeosomes were loaded with the antigen OVA as described in methods. Archaeosomes formed in all cases upon hydrating at 35° C. However, when stored at refrigeration temperatures (4-6° C.) these synthetic archaeosomes with no cholesterol were unstable, converting to amorphous lipid debris and needle shaped crystals. This instability was avoided by inclusion of 10 mol % or more cholesterol. […] The optimal cholesterol was therefore in the range of >10 to <45 mol %.
Archaeosomes/liposomes were prepared by hydrating 20-30 mg lipids at 40° C. in 2 ml of PBS buffer (10 mM sodium phosphate, 160 mM NaCl, pH 7.1) or water with (Ag-loaded) or without (Ag-free) the test antigen OVA dissolved at 10 mg/ml. In some cases, cholesterol (Sigma), DPPS, DPPE, or DPPG (Avanti Polar Lipids) polar lipids were mixed in chloroform/methanol with the synthetic glyco-archaeols. […] Quantification of antigen loading was done by SDS polyacrylamide gel electrophoresis as described and based on salt corrected dry weights (27). Average diameters were determined by particle size analysis using a 5 mW He/Ne laser (Nicomp 370).

[4] = tested on: antigen specific EG.7 targets; experiment: CTL activity in splenocytes of immunized mice, Cr51-assay; assay type: in vivo, C57BL/6 mice; conditions: for CTL adjuvant activity, FIG. 7B: disaccharide-archaeol/DPPG/cholesterol (25/55/20, mol %), 12 weeks
Experimental: as §1

[5] = tested on: Listeria monocytogenes (LM)-OVA construct; experiment: Protection against LM-OVA challenge after vaccination, splenic CFU; assay type: in vivo; conditions: glyco-archaeol/DPPG/chol (25/55/20, mol %), FIG. 13
Experimental: FIG. 13 illustrates protection against LM-OVA challenge after vaccination with OVA-adjuvant combinations. C57BL/6J mice were immunized on day 0 and 21 with 15 ug OVA entrapped in various synthetic archaeosomes composed of the respective synthetic glyco-archaeol/DPPG/chol (25/55/20, mol %). At 8 weeks, mice were challenged with 10^4 intravenous dose of Listeria monocytogenes (LM)-OVA construct. Mice were euthanized 3 days later. Mean±SEM of splenic colony forming units (CFU) is shown for each group.

B16OVA cells = experiment: Skin melanoma solid tumor model, protection upon vaccination; assay type: in vivo, C57BL/6 mice; conditions: 5 mice/group, vaccinated s.c. with 15 μg OVA at 0 and 3 weeks, archaeal lipid/DPPG/cholesterol 25/55/20 mol %
Experimental: A skin melanoma solid tumor model was used in mice to evaluate protection achieved upon vaccination with synthetic archaeosomes. Mice were vaccinated subcutaneously with 15 μg OVA or synthetic archaeosome compositions containing 15 μg OVA at 0 and 3 weeks. Archaeosome lipid compositions were synthetic archaeal lipid/DPPG/cholesterol (25/55/20 mol %). At week 7 post first injection 5×10^6 B16OVA cells were injected subcutaneously in the shaved lower dorsal area. The time was recorded when solid tumours became evident.

Molecule: CC(C)CCCC(C)CCCC(C)CCCC(C)CCOCC(CO[C@@H]1O[C@H](CO[C@@H]2O[C@H](CO)[C@@H](O)[C@H](O)[C@H]2O)[C@@H](O)[C@H](O)[C@H]1O)OCCC(C)CCCC(C)CCCC(C)CCCC(C)C (stereo partly drawn) [DGAs, β-D-Glc-(1,6)-β-D-Glc-archaeol]
adjuvant activity [1]: striking decline in adjuvant activity

Molecule: CCCCCCCCCCCCCCCC(=O)OCC(COP(=O)(O)OCCN)OC(=O)CCCCCCCCCCCCCCC (stereo not drawn) [DPPE, reference compound]
antigen-specific antibody response, FIG. 10B (anti-OVA antibody): equivalent in antibody response to archaeosomes containing archaetidylglycerol
antigen-specific CD8+ T cell response, Elispot, FIG. 10A [2]: relatively low CD8^+ T cell activity
Elispot activity as % of the activity found for DPPG ([2]; gentiotriose-archaeol/anionic lipid/cholesterol (35/35/30, mol %), 6 weeks, data not shown): 27%

Molecule: CCCCCCCCCCCCCCCC(=O)OCC(COP(=O)(O)OCC(O)CO)OC(=O)CCCCCCCCCCCCCCC (stereo not drawn) [DPPG, dipalmitoylphosphatidylglycerol, reference compound]
antigen-specific CD8+ T cell response, Elispot, FIG. 10A [2]: transient

archaeosome formation upon hydration [3]: did not form readily
Molecule: CC(C)CCC[C@@H](C)CCC[C@@H](C)CCC[C@@H](C)CCOC[C@H](CO[C@@H]1O[C@H](CO[C@@H]2O[C@H](CO)[C@@H](O)[C@H](O)[C@H]2O)[C@@H](O)[C@H](O)[C@H]1O)OCC[C@H](C)CCC[C@H](C)CCC[C@H](C)CCCC(C)C [Glc2-archaeol]
anti-OVA antibody response, FIG. 4B (anti-OVA antibody; 15 μg OVA s.c. 0 and 3 weeks, 6 and 11 weeks): dramatic increase
CD8+ T cell adjuvant activity, Elispot, FIG. 7C ([2]; 6 weeks): best
CTL response, FIG. 4A ([4]; 15 μg OVA s.c. 0 and 3 weeks, 6 weeks from first injection): dramatic increase
mol % Glc2-archaeol content at which CD8+ T cell immune responses were best ([4]; cholesterol 20 mol %, DPPG remainder, FIG. 5): 15-45 mol %

archaeosome formation upon hydration [3]: did not form readily
Molecule: CC(C)CCC[C@@H](C)CCC[C@@H](C)CCC[C@@H](C)CCOC[C@H](CO[C@H]1O[C@H](CO)[C@@H](O)[C@H](O)[C@@H]1O)OCC[C@H](C)CCC[C@H](C)CCC[C@H](C)CCCC(C)C [Man1-C]

archaeosome formation upon hydration [3]: did not form readily
Molecule: CC(C)CCC[C@@H](C)CCC[C@@H](C)CCC[C@@H](C)CCOC[C@H](CO[C@H]1O[C@H](CO)[C@@H](O)[C@H](O)[C@@H]1O[C@H]1O[C@H](CO)[C@@H](O)[C@H](O)[C@@H]1O)OCC[C@H](C)CCC[C@H](C)CCC[C@H](C)CCCC(C)C [Man2-C]

Molecule: CC(C)CCC[C@@H](C)CCC[C@@H](C)CCC[C@@H](C)CCOC[C@H](CO[C@@H]1O[C@H](CO[C@@H]2O[C@H](CO[C@@H]3O[C@H](CO)[C@@H](O)[C@H](O)[C@H]3O)[C@@H](O)[C@H](O)[C@H]2O)[C@@H](O)[C@H](O)[C@H]1O)OCC[C@H](C)CCC[C@H](C)CCC[C@H](C)CCCC(C)C [gentiotriose-A]
protection from LM-OVA infection [5]: Best protection

Molecule: CC(C)CCC[C@@H](C)CCC[C@@H](C)CCC[C@@H](C)CCOC[C@H](CO[C@@H]1O[C@H](CO[C@H]2O[C@H](CO)[C@@H](O)[C@H](O)[C@H]2O)[C@@H](O)[C@H](O)[C@H]1O)OCC[C@H](C)CCC[C@H](C)CCC[C@H](C)CCCC(C)C [isomaltose-A]
antibody responses, FIG. 7D (anti-OVA antibody; glyco-archaeol/DPPG/cholesterol (25/55/20, mol %), 6 weeks): quite strong
protection from LM-OVA infection [5]: less protective
CD8+ T cell adjuvant activity, Elispot, FIG. 7C ([2]; 6 weeks): lower CD8^+ T cell responses

Molecule: CC(C)CCC[C@@H](C)CCC[C@@H](C)CCC[C@@H](C)CCOC[C@H](CO[C@@H]1O[C@H](CO)[C@@H](O[C@@H]2O[C@H](CO)[C@H](O)[C@H](O)[C@H]2O)[C@H](O)[C@H]1O)OCC[C@H](C)CCC[C@H](C)CCC[C@H](C)CCCC(C)C [lactose-archaeol]
CTL adjuvant activity, FIG. 7B [4]: strong

Molecule: CC(C)CCC[C@@H](C)CCC[C@@H](C)CCC[C@@H](C)CCOC[C@H](CO[C@@H]1O[C@H](CO[C@H]2O[C@H](CO)[C@H](O)[C@H](O)[C@H]2O)[C@@H](O)[C@H](O)[C@H]1O)OCC[C@H](C)CCC[C@H](C)CCC[C@H](C)CCCC(C)C [melibiose-archaeol]
CTL adjuvant activity, FIG. 7B [4]: strong

Molecule: Sulfonoquinovosyl diacylglycerol [SQDG]
antigen-specific CD8+ T cell response, Elispot, FIG. 10A [2]: Best activity

Molecule: archaetidylglycerol [AG]
antigen-specific CD8+ T cell response, Elispot, FIG. 10A [2]: Best activity
CTL adjuvant activity, FIG. 3 ([4]; 15 μg OVA s.c. 0 and 3 weeks, spleens 7 weeks after first immunization): little ability to serve as adjuvants

Molecule: archaetidylglycerophosphate-methyl [AGP-CH3]
antigen-specific CD8+ T cell response, Elispot, FIG. 10A [2]: Best activity

Molecule: archaetidylinositol
antigen-specific antibody response, FIG. 10B (anti-OVA antibody): favoured the antibody CD4^+ T cell response over the CD8^+ T cell response

B1: OVA (protein, UniProt P01012 2-386, looked up)
Ovalbumin: GSIGAASMEFCFDVFKELKVHHANENIFYCPIAIMSALAMVYLGAKDSTRTQINKVVRFDKLPGFGDSIEAQCGTSVNVHSSLRDILNQITKPNDVYSFSLASRLYAEERYPILPEYLQCVKELYRGGLEPINFQTAADQARELINSWVESQTNGIIRNVLQPSSVDSQTAMVLVNAIVFKGLWEKAFKDEDTQAMPFRVTEQESKPVQMMYQIGLFRVASMASEKMKILELPFASGTMSMLVLLPDEVSGLEQLESIINFEKLTEWTSSNVMEERKIKVYLPRMKMEEKYNLTSVLMAMGITDVFSSSANLSGISSAESLKISQAVHAAHAEINEAGREVVGSAEAGVDAASVSEEFRADHPFLFCIKHIATNAVLFFGRCVSP
numbers of mice that developed a solid tumor (B16OVA cells; 6 days from subcutaneous injection of B16OVA tumor cells): 2
numbers of mice that developed a solid tumor (B16OVA cells; 9 days from subcutaneous injection of B16OVA tumor cells): 3
numbers of mice that developed a solid tumor (B16OVA cells; 16 days from subcutaneous injection of B16OVA tumor cells): 4
numbers of mice that developed a solid tumor (B16OVA cells; 20 days from subcutaneous injection of B16OVA tumor cells): euthanized
